# Values joined by “and” are separate entries in the source; they are usually repeats but may differ in a detail not shown here. Identical values can stand only once.
# Test system: LARGE protein
# Assay: Stimulation of the expression of LARGE protein in normal human keratinocytes (immunocytochemical staining)
# Assay type: cell-based
# Conditions: 48 hours, visual staining scale from 1 to 5, untreated keratinocytes 2.03, one donor
# Description: The effect of the Resveratrol used in Example 4 on the expression of the LARGE protein was evaluated in cultured keratinocytes. Keratinocytes derived from neonatal foreskin (Invitrogen, CA, USA) were cultivated in 6-well plates containing cover glasses coated with poly-L-ornithine (Sigma, MO) in keratinocyte culture medium with supplement (EpiLife, Invitrogen). After culturing for 24 hours at 37° C., the 40-50% confluent cells were washed with PBS buffer (Invitrogen, CA) and incubated with basal keratinocytes culture medium (EpiLife, Invitrogen) containing the extract to be tested, for 48 hours. The cytotoxicity of the extract was evaluated in human cultured keratinocytes before testing the activity. To quantify the expression of the LARGE protein in a treated sample relative to an untreated sample, immunocytochemical staining (ICC) of cover glasses with cultured keratinocytes was used. Staining was performed in triplicates, with primary goat anti-human LARGE antibodies (Santa Cruz, Calif.) and secondary donkey anti-goat antibodies (Rockland Immunochemicals, PA). The staining was visualized with AEC system (Lab Vision Corporation, CA). The extent of staining was assessed on thirty random images for each experimental condition, and a visual assessment of the staining was made using a scale from 1 to 5, with 1 being the least intense and 5 being the most intense. The significance of the difference between mean values was assessed using unpaired t test.
structure (smiles),measurement,setting,value
Oc1ccc(C=Cc2cc(O)cc(O)c2)cc1 [Resveratrol],Stimulation of LARGE protein,0.0005% (w/w),2.7 (±0.88) and 2.70
same,Stimulation of LARGE protein,0.001% (w/w),2.67 (±0.55) and 2.67
same,Stimulation of LARGE protein,0.002% (w/w),3.8 (±0.93) and 3.80
